Earlier results as cited in patent US6420361B1, “Soil pesticide” (priority 1999, dated 2002).

## CN1CSC(=S)N(C)C1 [TDTT, tetrahydro-3,5-dimethyl-2H-1,3,5-thiadiazine-2-thione]
  Solubility and stability in commonly used agricultural solvents or carriers: not very soluble or stable
Applied as a liquid formulation
  Concentration limit in liquid formulation: less than 15 % by weight
